{"source": "the OPERA property sets (Mansouri et al. 2018)"}
{"units": {"melting point": "°C", "boiling point": "°C"}}
{"smiles": "CCOP(=S)(Oc1ccc(C#N)cc1)c1ccccc1", "note": "(stereo not drawn)", "melting point": 83}
{"smiles": "C[Si]1(C)O[Si](C)(C)O[Si](C)(C)O[Si](C)(C)O[Si](C)(C)O[Si](C)(C)O[Si](C)(C)O[Si](C)(C)O1", "boiling point": 290, "log10 vapour pressure (mmHg)": -2.54, "melting point": 31.5}
{"smiles": "CCCOP(OCCC)OCCC", "boiling point": 206}
{"smiles": "Nc1ccccc1Oc1ccccc1", "boiling point": 308, "melting point": 45.8}
{"smiles": "CCC(=O)C(=O)CC", "boiling point": 130, "melting point": -10}
{"smiles": "Nc1ccc(Cl)cn1", "melting point": 137}
{"smiles": "O=C1OC(=O)c2ccccc21", "boiling point": 295, "log10 Koc (L/kg)": 1.56, "log10 vapour pressure (mmHg)": -3.29, "melting point": 131, "ready biodegradability": "readily biodegradable"}
{"smiles": "O=C(O)c1ccc(Br)cc1", "log10 vapour pressure (mmHg)": -5, "melting point": 254}
{"smiles": "CCOc1ccccc1C(=O)O", "melting point": 20.7}
{"smiles": "O=C(O)/C=C/c1ccccc1", "boiling point": 300, "log10 vapour pressure (mmHg)": -4.49, "melting point": 133}
{"smiles": "C=C(C)c1ccc(C)cc1", "boiling point": 185, "melting point": -20}
{"smiles": "FC(F)(F)c1ccc(Cl)c(Cl)c1", "boiling point": 174, "log10 vapour pressure (mmHg)": 0.372, "melting point": -12.5}
{"smiles": "CO[C@H]1C=CO[C@@]2(C)Oc3c(C)c(O)c4c(O)c(cc(O)c4c3C2=O)NC(=O)C(C)=CC=C[C@H](C)[C@H](O)[C@@H](C)[C@@H](O)[C@@H](C)[C@H](OC(C)=O)[C@@H]1C", "melting point": 300}
{"smiles": "CC1=CC[C@@H]2C[C@@H](C[C@]3(CC[C@H](C)[C@@H](C)O3)O2)OC(=O)[C@@H]2C=C(C)[C@@H](O)[C@H]3OCC(=CC=C[C@H](C)C1)[C@]32O", "melting point": 214}
{"smiles": "O=c1ccn([C@@H]2C[C@@H](O)[C@H](CO)O2)c(=O)[nH]1", "melting point": 163}
{"smiles": "CCC(CC1CCCCC1)CC1CCCCC1", "boiling point": 306}
{"smiles": "CC(=O)c1cccc(C(C)=O)c1", "melting point": 32}
{"smiles": "Cc1nccn1C", "boiling point": 206}
{"smiles": "OCCOc1ccccc1", "boiling point": 245, "log10 vapour pressure (mmHg)": -2.15, "melting point": 14}
{"smiles": "c1ccc(C(c2ccccc2)(c2ccccc2)N2CCOCC2)cc1", "melting point": 175}
{"smiles": "FC(F)=C(F)C(F)(F)F", "boiling point": -29.6, "log10 vapour pressure (mmHg)": 3.69, "melting point": -156}
{"smiles": "C[C@H](CC(=O)O)[C@H]1CC[C@H]2[C@@H]3CC[C@@H]4CCCC[C@]4(C)[C@H]3CC[C@]12C", "melting point": 177}
{"smiles": "CCCC(C)C(=O)O", "note": "(stereo not drawn)", "boiling point": 196}
{"smiles": "C#CCOc1cc(-n2nc3n(c2=O)CCCC3)c(Cl)cc1Cl", "log10 vapour pressure (mmHg)": -11.1, "melting point": 168}
{"smiles": "Cc1ccccc1OC(=O)c1ccccc1", "boiling point": 309}
{"smiles": "CCC(=O)CCl", "boiling point": 138}
{"smiles": "O=C(Cc1ccccc1)OC(=O)Cc1ccccc1", "melting point": 73.3}
{"smiles": "CC=C(C)C=CC=C(C)C", "melting point": -28}
{"smiles": "CC[Si](CC)(CC)O[Si](CC)(CC)CC", "boiling point": 233}
{"smiles": "CN(C)c1ccc([N+](=O)[O-])cc1", "log10 vapour pressure (mmHg)": -5.22, "melting point": 164}
{"smiles": "N#CCC(N)=O", "melting point": 122}
{"smiles": "CN(CC(=O)O)C(=O)COC(=O)c1ccccc1", "melting point": 106}
{"smiles": "COc1ccc(C(=O)c2ccccc2O)c(O)c1", "melting point": 68}
{"smiles": "CC(C)OC(=O)Nc1ccccc1", "log10 Koc (L/kg)": 1.83, "log10 vapour pressure (mmHg)": -3.85, "melting point": 87.3}
{"smiles": "CCCCCCCl", "boiling point": 135, "log10 Henry constant (atm·m³/mol)": -1.62, "log10 vapour pressure (mmHg)": 0.972, "melting point": -94}
{"smiles": "c1ccc(Cc2c3ccccc3c(Cc3ccccc3)c3ccccc23)cc1", "melting point": 246}
{"smiles": "Cc1c(C2(c3cc(Br)c(O)c(Br)c3C)OS(=O)(=O)c3ccccc32)cc(Br)c(O)c1Br", "melting point": 218}
{"smiles": "COC(=O)C(F)(F)C(F)(F)F", "boiling point": 59.5}
{"smiles": "C=CC(C)CCC", "note": "(stereo not drawn)", "boiling point": 83.9, "log10 vapour pressure (mmHg)": 1.92}
{"smiles": "Cc1ccoc1", "boiling point": 66}
{"smiles": "Cc1ccc(S(=O)(=O)O)cc1", "melting point": 104, "ready biodegradability": "readily biodegradable"}
{"smiles": "CN(C)CCCN(C)C", "boiling point": 144}
{"smiles": "CC(C)(C)CC(C)(C)S", "boiling point": 160, "log10 vapour pressure (mmHg)": 0.716, "melting point": -74}
{"smiles": "c1ccc(OCCOc2ccccc2)cc1", "melting point": 98}
